Assay results: US20010005714A1, “AMPHIPATHIC MOLECULES AS CHOLESTEROL AND OTHER LIPID UPTAKE INHIBITORS” (priority 1996, published 2001)

How the values were obtained:
[1] = Denaturation by 10% TCA or boiling/chilling: protein remaining in supernatant; type: physicochemical
Excerpt: Since the characterisation of sheep apo A-1 has not been reported yet, the physical characteristics of human and rabbit apo A-1 are reported for comparison (Chapman, Academic Press, Inc. San Diego, New York, Boston, London, Sydney, Tokyo. Toronto 70-143 1986)). Fr.28-PBE94 was subjected to N-terminal amino acid analysis. The first 29 amino acids of fr.28-PBE94 were 79.3% identical with rat apo A-1, 69.0% with rabbit apo A-1, 86.2% with bovine apo A-1 and 65.0% with human apo A-1. Fr.28-PBE94 cross-reacted with mouse monoclonal anti-human apo A-1 antibodies in Western blotting experiments. […] This is the floating density of high-density lipoproteins. After subjecting fr.28-PBE94 to the guanidine HCl treatment according to Nichols et al. (Nichols et al., Biochimica et Biophysica Acta 446 226-239 (1976)), fr.28-PBE94 was delipidated, showing the same behaviour as human apo A-1. […] Denatured proteins were removed by centrifugation, and protein and inhibitory activity remaining in the supernatant were determined (Table 4).

rabbit BBMV = test: Dose response of cholesteryl oleate uptake from egg PC SUVs by rabbit BBMV (FIG. 4B); type: biochemical; conditions: donor 0.05 mg/ml total lipid, acceptor 1.7 mg protein/ml, 20 min at 25° C., curve fits of FIG. 4B
Protocol: Small unilamellar vesicles of egg phosphatidylcholine containing 1 mol % cholesteryl oleate and a trace amount of (1,2-^3H2 (N)]-cholesteryl oleyl ether (37 Ci/mmol, from Amersham, UK) as the donor were made as described in Example 1 and BBMVs as the acceptor were prepared from rabbit small intestine (see Example 1). Donor and acceptor both dispersed in Tris/NaCl buffer (0.05 M Tris HCl pH 7.4, 0.15 M NaCl, 0.02% NaN3) and a solution of human apo A-1 or sheep HDL in the same buffer were mixed at time zero (total volume: 0.1 ml) so that the final concentrations of donor and acceptor were 0.05 mg/ml total lipid and 1.7 mg protein/ml, respectively. After incubation of the suspension of donor and acceptor in the presence of inhibitor for 20 min. at 25° C., the reaction was stopped by dilution with 2 vol. of Tris/NaCl buffer. Donor and acceptor were separated by centrifugation in the airfuge at 115,000 g for 2 min. at […]., and the radioactivities in the supernatant containing donor vesicles and in the pellet containing BBMVs were determined in a BECKMAN™ LS 7500 scintillation counter. […]
Experimental conditions were as described for FIG. 4A. The cholesterol absorption activity of BBMVs measured in the absence of inhibition was taken as 100% and the loss in activity observed in the presence of inhibitor is expressed as %. […]

rabbit BBMVs = test: Sterol uptake inhibition using mixed bile salt micelles as donors; type: biochemical; conditions: 1.56 μM human apo A-1 or 1.98 μM fr.28-PBE94; 5 mM taurocholate, 0.6 mM oleic acid, 2 μM cholesterol; 10 min at 25° C.
Protocol: Since bile salt micelles are the most important lipid carriers in the small intestine, it is relevant to measure sterol uptake inhibition using mixed bile salt micelles as the donor. Donor micelles made of 50 mM taurocholate, 6 mM oleic acid and 20 μM radiolabelled cholesterol were prepared as follows: the lipids were mixed at these concentrations in 2:1 chloroform:methanol and the organic solvent was removed by rotary evaporation. The resulting lipid film was dried under high vacuum for at least 1 hour. The dried film was dispersed in the appropriate amount of Tris/NaCl to yield the desired micellar concentration. Acceptor rabbit BBMVs, prepared as described in Example 2, were mixed with either 1.56 μM human apo A-1 or 1.98 μM fr.28-PBE94. Donor mixed micelles were added to the acceptor/inhibitor dispersion to a final concentration of 5 mM taurocholate, 0.6 mM oleic acid and 2 μM radiolabelled cholesterol and the mixture incubated for 10 min at 25° C. […] Radioactivities in both pellet and supernatant were measured and results evaluated as described in Example 2; incubation with apo A-1 yielded 12% of the inhibitory activity measured at the same inhibitor concentration using SUVs as donor, and incubation with fr.28-PBE94 yielded 23% of the inhibitory activity measured at the same inhibitor concentration using SUVs as donor.

[2] = test system: brush border membrane vesicles (BBMV); test: IC50 of cholesteryl oleate uptake at the brush border membrane (Example 6); type: biochemical, rabbit; conditions: donor 0.1 mg total lipid/ml, acceptor 2 mg protein/ml; 20 min at 25° C.
Protocol: An appropriate amount of inhibitor dissolved in 84.5 μl buffer (0.05 M Tris pH 7.4, 0.15 M NaCl) is mixed in an Eppendorf tube at time zero with 5 μl of a dispersion of donor and 10.5 μl of a dispersion of acceptor (i.e. brush border membrane vesicles (BBMV)) in the same buffer. The final concentration of the donor vesicles was 0.1 mg total lipid/ml, that of the acceptor was 2 mg protein/ml. The resulting mixture was incubated for 20 min at 25° C., and the reaction was stopped by adding 60 μl of the incubation medium to 120 μl ice-cold bufferin an airfuge tube. The diluted dispersion was immediately centrifuiaed in the airfuge at […] for 2 min. at 4° C. to separate donor vesicles from BBMV. Two 60 μl aliquots of the donor (=supernatant) were counted in a Beckman LS-7500 liquid scintillating counter to determine the radioactivity remaining in tbe donor.
Small unilamellar egg phosphatidycholine (PC) vesicles containing 1 mol % of cholesterol oleate and a trace amount of ^3H-cholesterol oleyl ether were made by dissolving the appropriate amounts of the lipids in CHCl3/CH3OH, (2:1, by vol.), taking the solution to dryness on a rotary evaporator and drying the residue in vacuo. The dried lipid film was dispersed in the appropriate volume of buffer by hand-shaking. The lipid dispersion was subjected to tip sonication as described in Brunner et al, J. Biol. Chem. 253 7538-7546 (1978). The resulting donor dispersion in buffer was centrifuged in the airfuge at 100000 g for 2 min at […]. Only the top 80% of the donor dispersion after centrifugation was used in the lipid uptake experiment.
BBMV were prepared from frozen rabbit small intestine according to Hauser et al (Biochim. Biophys. Acta 602 567-577 (1980)). Prior to use in the uptake experiment determining IC50 values the BBMV were washed to remove any free protein liberated from the BBM. To this end the BBMV dispersion was diluted with buffer 1:1 in an airfuge tube, and the diluted dispersion was centrifuged in the airfuga at 100000 g for 2 min at […]. The supernatant was is carefully decanted, the pellet was resuspended in buffer to the original volume of the BBMV dispersion, and the dispersion was homogenized. […]

[3] = test system: small intestine of Sprague-Dawly rats; test: In vivo cholesterol absorption in the small intestine of rats; conditions: ApoA-1 added to the diet
Excerpt: The biological relevance of the inhibitory effect observed in vitro is confirmed by an in vivo experiment showing that cholesterol absorption in the small intestine of Sprague-Dawly rats can be inhibited by the amphipathic principle by more than 80%. ApoA-1 added to the diet was used as the inhibitor, because this protein could be purified from human serum in sufficient quantity. Bases or the experimental evidence presented we ppropose that the inhibitory effect on cholesterol uptake is not restricted to particular amphipathic molecules. It is likely that the chemical nature of the amphipathic compound is of secondary importance and that the geometry and the polarity of the compound are the decisive determinants. The results presented here have important implications since amphipathic molecules belonging to any class of biological compounds such as lipids, proteins or carbohydrates might inhibit cholesterol uptake by the brush border membrane.

[4] = taken from Chapman (1986), for comparison; cited from earlier work

Substance: human apo A-1: human apolipoprotein A-1, prepared from human HDL by delipidation and ion exchange chromatography
- protein (%) remaining in the supernatant ([1]; after TCA precipitation (10% TCA)): 0%
- protein (%) remaining in the supernatant ([1]; after boiling/chilling (4 cycles, 5 min each)): 27%
- IC-50 (rabbit BBMV): 25 µg/mL
- inhibitory activity with mixed bile salt micelles as donor, as % of that measured at the same inhibitor concentration using SUVs as donor (rabbit BBMVs): 12%
- IC50 [2]: 0.5 ± 0.1 µM
- IC50 (μg/mL) of cholesteryl oleate uptake at the brush border membrane [2]: 14 ± 3 µg/mL
- inhibition of cholesterol absorption in the small intestine [3]: more than 80%
- isoelectric point [4]: 5.52
